From patent publication US20250382549A1, “MULTIFUNCTIONAL N-OXIDE HYDROTROPES, CLEANING FORMULATIONS CONTAINING THEM AND USE THEREOF” (NOURYON CHEMICALS INTERNATIONAL B.V., priority 2022, published 2025) come the findings set out here.

This assay is described as follows: Degreasing effect on a soiled white painted metal plate (non-mechanical cleaning). As to conditions: 1:40 dilution in water, poured over painted metal plate soiled with train engine grease, rinsed with tap water. The protocol:
The degreasing effect of the test formulations was assessed on a white painted metal plate soiled uniformly with a tough-to-clean greasy soil collected from a train engine. The cleaning formulation (1:40 dilution in water) was applied simply by pouring it over the surface (non-mechanical cleaning). After a short time interval, the whole plate was rinsed with tap water and cleaning performance was assessed quantitatively. The results are tabulated below and depicted in FIG. 1A (for the respective cleaning formulations A, B, and C containing no NaOH) and FIG. 1B. (for the respective cleaning formulations D, E, and F containing 2% NaOH).

As to “C12/14 alkyl methylamine ethoxylate N-Oxide”, the “Cleaning Performance” value is recorded as “performs as well as the comparison hydrotrope”.
